Results from patent publication US6579881B2 (Eisai Co., Ltd., priority 1997, dated 2003).
Structures can show the parent of a compound that is named as a salt. Where two headings read alike, the source gives them in different places.

Experiments:
[1] = test system: Straub's tail reaction (hyper-muscle tone in the tail); assay: Morphine induced Straub's tail phenomenon in mice; format: in vivo; conditions: Mus musculus, male ddY mice, 15 min before morphine hydrochloride 12.5 mg/kg s.c., statistically significant (p<0.05)
serotonin 2 receptor = serotonin 2 receptor (Rattus norvegicus, UniProt P14842); assay: Binding test on [3H] ketanserin (serotonin 2 receptor); conditions: [3H] ketanserin 0.3 nM, receptor fraction of rat cerebral cortex; read-out: 5HT2
α1 adrenalin receptor = assay: Binding test on [3H] prazosin (α1 adrenalin receptor); design: species or system rat; conditions: [3H] prazosin about 0.2 nM, receptor fraction of rat cerebral cortex
serotonin 1A receptor = biological target: T1, serotonin 1A receptor (Rattus norvegicus, UniProt P19327); assay: Binding test on [3H] 8-hydroxy-dipropylaminotetralin (serotonin 1A receptor); conditions: [3H] 8-OH-DPAT 0.5 nM, receptor fraction of rat hippocampus; read-out: 5HT1a
T1 construct: To the receptor fraction of the hippocampus were added a test compound and 0.5 nM of [^3H]; 8-hydroxy-dipropylaminotetralin; from tissue; host or cells: SD rat hippocampus, membrane (receptor) fraction
T1 sequence (P19327 1-422): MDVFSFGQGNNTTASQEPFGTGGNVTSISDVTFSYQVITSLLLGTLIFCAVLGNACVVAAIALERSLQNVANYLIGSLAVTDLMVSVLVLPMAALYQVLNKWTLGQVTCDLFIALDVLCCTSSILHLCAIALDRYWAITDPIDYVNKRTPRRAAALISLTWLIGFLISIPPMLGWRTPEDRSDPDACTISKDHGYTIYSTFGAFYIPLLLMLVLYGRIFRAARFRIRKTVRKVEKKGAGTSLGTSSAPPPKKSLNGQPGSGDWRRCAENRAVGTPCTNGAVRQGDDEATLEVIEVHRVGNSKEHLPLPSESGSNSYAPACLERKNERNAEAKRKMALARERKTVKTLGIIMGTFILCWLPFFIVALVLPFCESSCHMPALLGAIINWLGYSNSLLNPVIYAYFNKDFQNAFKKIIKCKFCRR

[2] = ip, i.p., read-out: minimal effective dose i.p.
[3] = po, p.o., read-out: minimal effective dose p.o.

Sequence of serotonin 2 receptor (P14842 whole entry): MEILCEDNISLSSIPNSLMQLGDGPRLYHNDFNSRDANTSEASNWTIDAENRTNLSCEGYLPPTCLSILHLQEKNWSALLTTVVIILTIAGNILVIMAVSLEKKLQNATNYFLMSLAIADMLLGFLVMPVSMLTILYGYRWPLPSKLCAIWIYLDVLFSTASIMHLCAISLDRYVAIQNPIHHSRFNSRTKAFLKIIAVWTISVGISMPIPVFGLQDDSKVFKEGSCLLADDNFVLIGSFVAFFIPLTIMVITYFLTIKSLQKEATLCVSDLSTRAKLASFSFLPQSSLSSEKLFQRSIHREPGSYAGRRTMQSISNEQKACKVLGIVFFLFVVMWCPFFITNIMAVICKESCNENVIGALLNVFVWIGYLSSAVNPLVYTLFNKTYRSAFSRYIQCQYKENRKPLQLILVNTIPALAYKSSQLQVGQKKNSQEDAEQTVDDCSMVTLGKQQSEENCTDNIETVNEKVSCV

For NCC(CC(=O)O)c1ccc(Cl)cc1 (stereo not drawn) [Baclofen, baclofen, reference compound], the minimal effective dose [1, 2] was 3 mg/kg and the minimal effective dose [1, 3] was 10 mg/kg.

In the case of CN(C)CCC=C1c2ccccc2C=Cc2ccccc21 [Cyclobenzaprine, cyclobenzaprine hydrochloride, reference compound], the minimal effective dose [1, 2] is reported as 10 mg/kg.

Molecule CN1CCC(=C2c3ccccc3C=Cc3ccccc32)CC1 [Cyproheptadine, cyproheptadine hydrochloride, reference compound] has a minimal effective dose [1, 2] of 3 mg/kg.

With Fc1ccc(CCN2CCC(N3CCc4ccccc43)CC2)cc1 [Example 9, 1-[1-(4-fluorophenethyl)piperidin-4-yl]indoline] the Ki (serotonin 2 receptor) was 11.6 nM, the Ki (α1 adrenalin receptor) was 76.5 nM and the minimal effective dose [1, 2] was 10 mg/kg. For the same molecule, the Ki (serotonin 1A receptor) was 3 nM.

With OCc1cccc(CCN2CCC(N3CCc4ccccc43)CC2)c1 [Example 22, 1-[1-(3-hydroxymethylphenethyl)piperidin-4-yl]indoline] the Ki (serotonin 2 receptor) was 12.2 nM, the Ki (α1 adrenalin receptor) was 113 nM and the minimal effective dose [1, 3] was greater than 10 mg/kg. For the same molecule, the Ki (serotonin 1A receptor) was 24 nM.

In the case of O/N=C/c1ccc(CCN2CCC(N3CCc4ccccc43)CC2)cc1 [Example 34, 1-[1-(4-hydroxyiminomethylphenethyl)piperidin-4-yl]indoline], the Ki (serotonin 2 receptor) is reported as 9.1 nM, the minimal effective dose [1, 2] is reported as no more than 10 mg/kg and the minimal effective dose [1, 3] is reported as 30 mg/kg. It also gave a Ki (serotonin 1A receptor) of 1.9 nM.

With CC(=O)NCc1ccc(CCN2CCC(N3CCc4ccccc43)CC2)cc1 [Example 36, 1-[1-(4-acetamidomethylphenethyl)piperidin-4-yl]indoline] the Ki (serotonin 2 receptor) was 14.9 nM, the Ki (α1 adrenalin receptor) was 39 nM and the minimal effective dose [1, 2] was 1 mg/kg. It also gave a minimal effective dose [1, 3] of no more than 3 mg/kg and a Ki (serotonin 1A receptor) of 4.5 nM.

With NS(=O)(=O)c1ccc(CCN2CCC(N3CCc4ccccc43)CC2)cc1 [Example 42, 1-[1-(4-sulfamoylphenethyl)piperidin-4-yl]indoline] the Ki (serotonin 2 receptor) was 5.7 nM, the Ki (α1 adrenalin receptor) was 230 nM and the minimal effective dose [1, 2] was no more than 10 mg/kg. It also gave a minimal effective dose [1, 3] of 10 mg/kg and a Ki (serotonin 1A receptor) of 35.8 nM.

COc1ncc(CCN2CCC(N3CCc4ccccc43)CC2)s1 [Example 65, 1-[1-(2-methoxy-5-thiazolyl)ethylpiperidin-4-yl]indoline] showed a Ki (serotonin 2 receptor) of 4.8 nM, a minimal effective dose [1, 3] of 30 mg/kg and a Ki (serotonin 1A receptor) of 8.8 nM.

In the case of Fc1ccc(CCN2CCC(N3CCc4ccc(F)cc43)CC2)cc1 [Example 103, 1-[1-(4-fluorophenethyl)piperidin-4-yl]-6-fluoroindoline], the Ki (serotonin 2 receptor) is reported as 15.8 nM, the Ki (α1 adrenalin receptor) is reported as 77.7 nM and the minimal effective dose [1, 2] is reported as no more than 10 mg/kg. It also gave a minimal effective dose [1, 3] greater than 30 mg/kg and a Ki (serotonin 1A receptor) of 3.9 nM.

COc1ccc2c(c1)N(C1CCN(CCc3ccc(F)cc3)CC1)CC2 [Example 106, 1-[1-(4-fluorophenethyl)piperidin-4-yl]-6-methoxyindoline] gave a Ki (serotonin 2 receptor) of 6.4 nM, a Ki (α1 adrenalin receptor) of 71.3 nM and a minimal effective dose [1, 2] of 10 mg/kg. For the same molecule, the minimal effective dose [1, 3] was greater than 30 mg/kg and the Ki (serotonin 1A receptor) was 0.7 nM.

With OCCOc1ccc2c(c1)N(C1CCN(CCc3ccc(F)cc3)CC1)CC2 [Example 121, 1-[1-(4-fluorophenethyl)piperidin-4-yl]-6-hydroxyethoxyindoline] the Ki (serotonin 2 receptor) was 22.8 nM, the Ki (α1 adrenalin receptor) was 58.2 nM and the minimal effective dose [1, 3] was 10 mg/kg. The Ki (serotonin 1A receptor) was 0.5 nM.

Molecule NC(=O)c1ccc2c(c1)N(C1CCN(CCc3ccc(F)cc3)CC1)CC2 [Example 125, 1-[1-(4-fluorophenethyl)piperidin-4-yl]-6-carbamoylindoline] has a Ki (serotonin 2 receptor) of 4.76 nM, a Ki (α1 adrenalin receptor) of 46.4 nM and a minimal effective dose [1, 2] of 1 mg/kg. For the same molecule, the minimal effective dose [1, 3] was 3 mg/kg and the Ki (serotonin 1A receptor) was 0.1 nM.

Work on CC(=O)NCc1ccc2c(c1)N(C1CCN(CCc3ccc(F)cc3)CC1)CC2 [Example 133, 1-[1-(4-fluorophenethyl)piperidin-4-yl]-6-acetamidomethylindoline] yielded a Ki (serotonin 2 receptor) of 0.05 nM, a Ki (α1 adrenalin receptor) of 262 nM and a minimal effective dose [1, 2] of 0.3 mg/kg. It also gave a minimal effective dose [1, 3] of no more than 0.3 mg/kg and a Ki (serotonin 1A receptor) of 3.7 nM.

In the case of CC(O)c1ccc2c(c1)N(C1CCN(CCc3ccc(F)cc3)CC1)CC2 (stereo not drawn) [Example 137, 1-[1-(4-fluorophenethyl)piperidin-4-yl]-6-(1-hydroxyethyl)indoline], the Ki (serotonin 2 receptor) is reported as 6.68 nM, the Ki (α1 adrenalin receptor) is reported as 126 nM and the minimal effective dose [1, 3] is reported as 1 mg/kg. For the same molecule, the Ki (serotonin 1A receptor) was 0.65 nM.

Work on NC(=O)Cc1ccc2c(c1)N(C1CCN(CCc3ccc(F)cc3)CC1)CC2 [Example 147, 1-[1-(4-fluorophenethyl)piperidin-4-yl]-6-carbamoylmethylindoline] yielded a Ki (serotonin 2 receptor) of 0.77 nM, a Ki (α1 adrenalin receptor) of 157 nM and a minimal effective dose [1, 2] of no more than 0.3 mg/kg. The minimal effective dose [1, 3] was no more than 3 mg/kg and the Ki (serotonin 1A receptor) was 1.31 nM.

With CCNC(=O)Cc1ccc2c(c1)N(C1CCN(CCc3ccc(F)cc3)CC1)CC2 [Example 149, 1-[1-(4-fluorophenethyl)piperidin-4-yl]-6-(ethylcarbamoylmethyl)indoline] the Ki (serotonin 2 receptor) was 0.5 nM, the Ki (α1 adrenalin receptor) was 304 nM and the minimal effective dose [1, 2] was 1 mg/kg. It also gave a minimal effective dose [1, 3] of no more than 3 mg/kg and a Ki (serotonin 1A receptor) of 7.44 nM.

With CC(C)NC(=O)Cc1ccc2c(c1)N(C1CCN(CCc3ccc(F)cc3)CC1)CC2 [Example 151, 1-[1-(4-fluorophenethyl)piperidin-4-yl]-6-(isopropylcarbamoylmethyl)indoline] the Ki (serotonin 2 receptor) was 0.57 nM, the Ki (α1 adrenalin receptor) was 292 nM and the minimal effective dose [1, 3] was 3 mg/kg. It also gave a Ki (serotonin 1A receptor) of 8.84 nM.

In the case of CNCc1ccc2c(c1)N(C1CCN(CCc3ccc(F)cc3)CC1)CC2 [Example 162, 1-[1-(4-fluorophenethyl)piperidin-4-yl]-6-N-methylaminomethylindoline], the Ki (serotonin 2 receptor) is reported as 27.1 nM, the Ki (α1 adrenalin receptor) is reported as 223 nM and the minimal effective dose [1, 2] is reported as 1 mg/kg. For the same molecule, the minimal effective dose [1, 3] was greater than 10 mg/kg and the Ki (serotonin 1A receptor) was 0.98 nM.

In the case of CC(=O)NCCc1ccc2c(c1)N(C1CCN(CCc3ccc(F)cc3)CC1)CC2 [Example 166, 1-[1-(4-fluorophenethyl)piperidin-4-yl]-6-acetamidoethylindoline], the Ki (serotonin 2 receptor) is reported as 17.1 nM, the Ki (α1 adrenalin receptor) is reported as 194 nM and the minimal effective dose [1, 2] is reported as 3 mg/kg. For the same molecule, the minimal effective dose [1, 3] was 3 mg/kg and the Ki (serotonin 1A receptor) was 0.79 nM.

For CC(=O)N1CCC(Cc2ccc3c(c2)N(C2CCN(CCc4ccc(F)cc4)CC2)CC3)CC1 [Example 168, 1-[1-(4-fluorophenethyl)piperidin-4-yl]-6-[(1-acetylpiperidin-4-yl)methyl]indoline], the Ki (serotonin 2 receptor) was 4.06 nM, the Ki (α1 adrenalin receptor) was 72.6 nM and the minimal effective dose [1, 3] was 10 mg/kg. For the same molecule, the Ki (serotonin 1A receptor) was 3.84 nM.

Molecule COc1cccc(C(O)c2ccc3c(c2)N(C2CCN(CCc4ccc(F)cc4)CC2)CC3)n1 (stereo not drawn) [Example 186, 1-[1-(4-fluorophenethyl)piperidin-4-yl]-6-[1-hydroxy-1-(2-methoxypyridin-6-yl)methyl]indoline] has a Ki (serotonin 2 receptor) of 3.32 nM, a minimal effective dose [1, 3] of 10 mg/kg and a Ki (serotonin 1A receptor) of 14.6 nM.

Molecule O=C1NCCN1Cc1ccc2c(c1)N(C1CCN(CCc3ccc(F)cc3)CC1)CC2 [Example 206, 1-[1-(4-fluorophenethyl)piperidin-4-yl]-6-(2-imidazolidonyl)methylindoline] has a Ki (serotonin 2 receptor) of 2.17 nM, a minimal effective dose [1, 3] of 10 mg/kg and a Ki (serotonin 1A receptor) of 1.49 nM.

For O=C(CCO)NCc1ccc2ccn(C3CCN(CCc4ccccc4F)CC3)c2c1 [Example 382, 1-[1-(2-fluorophenethyl)piperidin-4-yl]-6-(3-hydroxypropionylamino)methylindole], the Ki (serotonin 2 receptor) was 3.31 nM, the Ki (α1 adrenalin receptor) was 163 nM and the melting point was 58 to 59 °C. The Ki (serotonin 1A receptor) was 7.59 nM.

In the case of O=C(CO)NCc1ccc2ccn(C3CCN(CCc4ccccc4F)CC3)c2c1 [Example 383, 1-[1-(2-fluorophenethyl]piperidin-4-yl]-6-hydroxyacetamidomethylindole], the Ki (serotonin 2 receptor) is reported as 1.81 nM, the Ki (α1 adrenalin receptor) is reported as 120 nM and the melting point is reported as 151 to 152 °C. The Ki (serotonin 1A receptor) was 5.34 nM.

Molecule CN(C)C(=O)NCc1ccc2ccn(C3CCN(CCc4ccc(F)cc4)CC3)c2c1 [Example 385, 1-[1-(4-fluorophenethyl)piperidin-4-yl]-6-N,N-dimethylaminocarbonylaminomethylindole] has a Ki (serotonin 2 receptor) of 0.97 nM, a Ki (α1 adrenalin receptor) of 21.6 nM and a melting point of 115 to 116 °C. The Ki (serotonin 1A receptor) was 2.41 nM.

Molecule OCc1ccc2ccn(C3CCN(CCc4ccccc4F)CC3)c2c1 [Example 391, 1-[1-(2-fluorophenethyl)piperidin-4-yl]-6-hydroxymethylindole] has a Ki (serotonin 2 receptor) of 6.83 nM, a Ki (α1 adrenalin receptor) of 116 nM and a melting point of 116.8 to 117.5 °C. For the same molecule, the Ki (serotonin 1A receptor) was 1.72 nM.

NC(=O)NCc1ccc2ccn(C3CCN(CCc4ccc(F)cc4)CC3)c2c1 [Example 393, 1-[1-(4-fluorophenethyl)piperidin-4-yl]-6-ureidomethylindole] showed a Ki (serotonin 2 receptor) of 2.54 nM, a Ki (α1 adrenalin receptor) of 37.8 nM and a melting point of 171.9 to 172.8 °C. For the same molecule, the Ki (serotonin 1A receptor) was 0.85 nM.

With CNC(=O)NCc1ccc2ccn(C3CCN(CCc4ccc(F)cc4)CC3)c2c1 [Example 397, 1-[1-(4-fluorophenethyl)piperidin-4-yl]-6-(3-methylureido)methylindole] the Ki (serotonin 2 receptor) was 2.27 nM, the Ki (α1 adrenalin receptor) was 27.1 nM and the melting point was 192 °C (dec.). It also gave a Ki (serotonin 1A receptor) of 1.28 nM.

Molecule Clc1ccc2nsnc2c1NC1=NCCN1 [Tizanidine, tizanidine hydrochloride, reference compound] has a minimal effective dose [1, 2] of 1 mg/kg and a minimal effective dose [1, 3] of 1 mg/kg.
